Data set [1] addresses T1, sigma-2 receptor (sigma-2 sites) (Rattus norvegicus, UniProt Q5U3Y7).
T1 sequence (Q5U3Y7 1-176): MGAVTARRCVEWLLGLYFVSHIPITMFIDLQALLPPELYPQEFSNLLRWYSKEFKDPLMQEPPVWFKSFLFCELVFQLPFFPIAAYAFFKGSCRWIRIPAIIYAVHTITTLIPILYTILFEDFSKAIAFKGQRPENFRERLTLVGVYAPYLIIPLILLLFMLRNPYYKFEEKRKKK
The data set is described as follows: Competitive displacement of [3H]-DTG binding, rat liver membranes. To be noted: for KI sigma-2 sites: rat liver membranes in the presence of 100 nM (+)-pentazocine, [3H]-DTG; for sigma-2/sigma-1: ratio from the KI value of sigma-1 and sigma-2 sites (membranes). Background: Displacement assays read how much labelled ligand stays bound in the presence of the test substance.

In a further data set the target is Kv1.4 potassium channel (Rattus norvegicus, UniProt P15385+Q9R0C9). The experiment in a line: Whole cell patch clamp, HEK-293 cells co-expressing Kv1.4 and sigma-1 receptor. The class given is cell-based. To be noted: for average inhibition of the Kv1.4 potassium channel: concentrations up to 300 μM, HEK-293 with Kv1.4 and sigma-1 receptor. (The patch-clamp technique gives a direct electrical read-out from membranes.)

Data set [2] has as its target pure guinea pig sigma-1 receptor (Cavia porcellus, UniProt Q60492). The experiment in a line: Competitive displacement of [3H]-. The data set is classed as binding.
Data set [3] has as its target T2, α-1A (α-adrenergic receptor subtype 1A) (Homo sapiens, UniProt P35348).
T2 sequence (P35348 1-466): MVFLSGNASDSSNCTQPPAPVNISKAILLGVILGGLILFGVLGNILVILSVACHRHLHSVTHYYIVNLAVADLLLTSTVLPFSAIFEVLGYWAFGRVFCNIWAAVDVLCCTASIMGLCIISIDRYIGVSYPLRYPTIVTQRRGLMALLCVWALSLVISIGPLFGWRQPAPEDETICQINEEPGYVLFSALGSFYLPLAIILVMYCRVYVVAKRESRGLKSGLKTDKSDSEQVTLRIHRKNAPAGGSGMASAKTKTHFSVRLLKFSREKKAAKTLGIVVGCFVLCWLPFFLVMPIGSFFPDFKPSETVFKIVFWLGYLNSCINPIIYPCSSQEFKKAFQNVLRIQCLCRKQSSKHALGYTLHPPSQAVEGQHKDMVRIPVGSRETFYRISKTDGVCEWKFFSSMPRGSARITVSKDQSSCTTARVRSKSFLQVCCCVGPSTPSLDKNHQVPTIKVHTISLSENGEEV
The data set is described as follows: NIMH PDSP secondary binding assay.

In a further data set the test system is HCT-15. The experiment in a line: Multiplex cytotoxicity assay. As to conditions: Homo sapiens, HCT-15, read-out: IC50 HCT-15. The data set is classed as cell-based.
The subject of another data set is MCF-7. The data set is described as follows: Multiplex cytotoxicity assay. The class given is cell-based. As to conditions: Homo sapiens, MCF7, read-out: IC50 MCF-7.
Another data set has as its system MCF-10A. The data set is described as follows: Multiplex cytotoxicity assay. The class given is cell-based. As to conditions: Homo sapiens, read-out: IC50 MCF-10A.
In data set [4] the target is SERT (serotonin transporter) (Homo sapiens, UniProt P31645). The experiment in a line: NIMH PDSP secondary binding assay.
Data set [5] has as its target H3 (histamine receptor type 3) (Homo sapiens, UniProt Q9Y5N1). The experiment in a line: NIMH PDSP secondary binding assay.
In data set [6] the target is 5HT2B (serotonin receptor subtype 2B) (Homo sapiens, UniProt P41595). The experiment in a line: NIMH PDSP secondary binding assay.
Data set [7] addresses β-3 (β-adrenergic receptor subtype 3) (Homo sapiens, UniProt P13945). The experiment in a line: NIMH PDSP secondary binding assay.
Another data set deals with caspases 3/7, 8, and 9. The experiment in a line: Caspase activation potential. The class given is cell-based. As to conditions: data not shown.
The target of data set [8] is NET (norepinephrine transporter) (Homo sapiens, UniProt P23975). The data set is described as follows: NIMH PDSP secondary binding assay.
A further data set deals with A549. The data set is described as follows: Multiplex cytotoxicity assay. As to conditions: Homo sapiens, A549, read-out: IC50 A549. The data set is classed as cell-based.
A further data set has as its target T3, Sig-2R, sigma-2 receptor (Rattus norvegicus, UniProt Q5U3Y7).
T3 sequence (Q5U3Y7 1-176): T1 sequence (Q5U3Y7 1-176)
The experiment in a line: NIMH PDSP secondary binding assay.

The target of data set [9] is D1 (dopamine receptor type 1) (Homo sapiens, UniProt P21728). The data set is described as follows: NIMH PDSP secondary binding assay.
The next data set concerns the target Sig-1R, sigma-1 receptor (Rattus norvegicus, UniProt Q9R0C9). The experiment in a line: NIMH PDSP secondary binding assay.
The test system of another data set is SK-OV-3. The experiment in a line: Multiplex cytotoxicity assay. The class given is cell-based. To be noted: Homo sapiens, SK-OV-3, read-out: IC50 SK-OV-3.
The test system of the next data set is SF-268. The experiment in a line: Multiplex cytotoxicity assay. As to conditions: Homo sapiens, SF-268, read-out: IC50 SF-268. The class given is cell-based.
Another data set concerns MDA-MB-231. The data set is described as follows: Multiplex cytotoxicity assay. To be noted: Homo sapiens, MDA-MB-231, read-out: IC50 MDA-MB-231. The class given is cell-based.
The next data set deals with sigma-1 receptor (Cavia porcellus, UniProt Q60492). The data set is described as follows: Saturation binding of [3H]-. Also on record: species or system guinea pig. As to conditions: GPLM; increasing concentrations of 2b.
In a further data set the test system is HT-29. The experiment in a line: Multiplex cytotoxicity assay. The data set is classed as cell-based. To be noted: Homo sapiens, HT-29, read-out: IC50 HT-29.
The target of data set [10] is 5HT1B (serotonin receptor subtype 1B) (Homo sapiens, UniProt P28222). The data set is described as follows: NIMH PDSP secondary binding assay.
For data set [11], the target named is T4, 5HT1A (serotonin receptor subtype 1A) (Homo sapiens, UniProt P08908).
T4 sequence (P08908 1-422): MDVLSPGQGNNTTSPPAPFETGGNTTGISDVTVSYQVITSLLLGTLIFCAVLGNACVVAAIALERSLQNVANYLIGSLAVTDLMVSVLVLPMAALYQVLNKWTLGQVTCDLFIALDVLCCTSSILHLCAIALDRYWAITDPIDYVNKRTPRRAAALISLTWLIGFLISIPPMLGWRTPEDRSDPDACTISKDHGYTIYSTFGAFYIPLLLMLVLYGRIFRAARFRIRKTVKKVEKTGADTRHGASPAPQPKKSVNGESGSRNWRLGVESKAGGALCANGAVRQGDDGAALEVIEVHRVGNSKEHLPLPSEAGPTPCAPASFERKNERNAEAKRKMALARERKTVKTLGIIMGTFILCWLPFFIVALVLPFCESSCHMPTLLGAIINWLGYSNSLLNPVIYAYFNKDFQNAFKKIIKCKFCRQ
The data set is described as follows: NIMH PDSP secondary binding assay. To be noted: KI 5HT1A.

Data set [12] addresses H2 (histamine receptor type 2) (Homo sapiens, UniProt P25021). The data set is described as follows: NIMH PDSP secondary binding assay.
The target in data set [13] is M3 (muscarinic acetylcholine receptor type 3) (Homo sapiens, UniProt P20309). The data set is described as follows: NIMH PDSP secondary binding assay.
Data set [14] deals with M4 (muscarinic acetylcholine receptor type 4) (Homo sapiens, UniProt P08173). The data set is described as follows: NIMH PDSP secondary binding assay.
For data set [15], the target named is 5HT7 (serotonin receptor subtype 7) (Homo sapiens, UniProt P34969). The experiment in a line: NIMH PDSP secondary binding assay.
Another data set relates to H1299. The experiment in a line: Multiplex cytotoxicity assay. The data set is classed as cell-based. To be noted: Homo sapiens, NCI-H1299, read-out: IC50 H1299.
Another data set concerns NCI-H460. The data set is described as follows: Multiplex cytotoxicity assay. The data set is classed as cell-based. As to conditions: Homo sapiens, NCI-H460, read-out: IC50 NCI-H460.
In data set [16] the target is β-2 (β-adrenergic receptor subtype 2) (Homo sapiens, UniProt P07550). The data set is described as follows: NIMH PDSP secondary binding assay.
The target of data set [17] is M5 (muscarinic acetylcholine receptor type 5) (Homo sapiens, UniProt P08912). The experiment in a line: NIMH PDSP secondary binding assay.
The next data set deals with Du145. The data set is described as follows: Multiplex cytotoxicity assay. The class given is cell-based. To be noted: Homo sapiens, DU-145, read-out: IC50 Du145.
In data set [18] the test system is tumors grown from the mouse mammary adenocarcinoma cell line 66. As to conditions: nude mice with tumors from mouse mammary adenocarcinoma cell line 66; cited from earlier work.
For data set [19], the system named is caspases 3/7. The experiment in a line: Caspase activation by rimcazole in cancer cell lines. The data set is classed as cell-based. To be noted: any cancer cell lines tested, including MCF-7.
The subject of data set [20] is caspases 3/7. As to conditions: MCF-7 and MDA MB 468 mammary carcinoma; ref Spruce et al. 2004; cited from earlier work.
The mark [21] stands for this setting: read-out: KI pure sigma-1 receptor, Table 1, [3H]-(+)-pentazocine displacement.

Read-outs that look alike come from different tables or passages of the source.

Results on twelve compounds are retold here after paper PMC3234165 (Biochemistry, 2011).

Sequence of pure guinea pig sigma-1 receptor (Q60492 whole entry): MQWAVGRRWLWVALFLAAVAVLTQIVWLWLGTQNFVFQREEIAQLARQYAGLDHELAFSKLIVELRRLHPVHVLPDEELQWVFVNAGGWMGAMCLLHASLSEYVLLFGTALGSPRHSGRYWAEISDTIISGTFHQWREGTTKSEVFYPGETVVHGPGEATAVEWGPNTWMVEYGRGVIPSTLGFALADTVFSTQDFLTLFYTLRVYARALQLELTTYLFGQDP
Sequence of Kv1.4 potassium channel (P15385 whole entry): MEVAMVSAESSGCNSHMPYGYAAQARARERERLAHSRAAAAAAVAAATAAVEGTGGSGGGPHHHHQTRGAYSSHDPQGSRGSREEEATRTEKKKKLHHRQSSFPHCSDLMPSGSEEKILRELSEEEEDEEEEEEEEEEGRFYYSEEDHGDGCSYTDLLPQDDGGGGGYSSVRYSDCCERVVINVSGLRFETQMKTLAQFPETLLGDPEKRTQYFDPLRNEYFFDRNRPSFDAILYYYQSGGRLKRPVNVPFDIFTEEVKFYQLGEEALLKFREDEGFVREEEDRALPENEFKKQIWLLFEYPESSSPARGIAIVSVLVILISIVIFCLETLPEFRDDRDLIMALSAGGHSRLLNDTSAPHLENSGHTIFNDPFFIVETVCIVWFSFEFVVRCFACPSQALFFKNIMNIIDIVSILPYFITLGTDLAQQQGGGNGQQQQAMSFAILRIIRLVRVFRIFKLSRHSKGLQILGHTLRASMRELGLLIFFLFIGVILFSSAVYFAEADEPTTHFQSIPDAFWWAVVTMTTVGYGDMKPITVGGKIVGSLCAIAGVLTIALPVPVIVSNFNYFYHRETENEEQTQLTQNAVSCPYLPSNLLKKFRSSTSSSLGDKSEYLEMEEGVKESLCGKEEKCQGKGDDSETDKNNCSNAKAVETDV
Sequence of Kv1.4 potassium channel (Q9R0C9 whole entry): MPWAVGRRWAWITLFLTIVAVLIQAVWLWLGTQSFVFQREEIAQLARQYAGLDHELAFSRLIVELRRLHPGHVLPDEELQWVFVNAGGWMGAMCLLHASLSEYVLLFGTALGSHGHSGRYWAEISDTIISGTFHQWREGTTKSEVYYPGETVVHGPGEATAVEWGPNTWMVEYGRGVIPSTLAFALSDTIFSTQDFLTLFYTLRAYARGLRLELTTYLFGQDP
Sequence of NET (norepinephrine transporter) (P23975 whole entry, species assumed): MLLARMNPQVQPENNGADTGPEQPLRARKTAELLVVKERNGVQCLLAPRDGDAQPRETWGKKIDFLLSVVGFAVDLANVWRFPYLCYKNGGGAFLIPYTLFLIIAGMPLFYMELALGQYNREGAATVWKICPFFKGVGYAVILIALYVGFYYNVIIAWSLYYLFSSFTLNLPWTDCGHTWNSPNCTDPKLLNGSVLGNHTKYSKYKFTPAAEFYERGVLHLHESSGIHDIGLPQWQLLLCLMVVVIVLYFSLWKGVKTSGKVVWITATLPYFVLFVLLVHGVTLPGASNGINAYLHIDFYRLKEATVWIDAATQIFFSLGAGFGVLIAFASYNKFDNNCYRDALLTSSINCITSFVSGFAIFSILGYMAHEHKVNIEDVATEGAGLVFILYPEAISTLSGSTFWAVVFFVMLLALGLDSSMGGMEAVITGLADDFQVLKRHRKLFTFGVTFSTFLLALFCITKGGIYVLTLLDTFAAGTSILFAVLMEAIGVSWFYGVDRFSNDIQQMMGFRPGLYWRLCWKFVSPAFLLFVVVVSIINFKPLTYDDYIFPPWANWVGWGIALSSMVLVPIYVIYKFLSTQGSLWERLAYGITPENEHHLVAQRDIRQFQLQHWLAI
Sequence of sigma-1 receptor (Q60492 whole entry): as the sequence (Q60492 whole entry) above
Sequence of β-2 (β-adrenergic receptor subtype 2) (P07550 whole entry): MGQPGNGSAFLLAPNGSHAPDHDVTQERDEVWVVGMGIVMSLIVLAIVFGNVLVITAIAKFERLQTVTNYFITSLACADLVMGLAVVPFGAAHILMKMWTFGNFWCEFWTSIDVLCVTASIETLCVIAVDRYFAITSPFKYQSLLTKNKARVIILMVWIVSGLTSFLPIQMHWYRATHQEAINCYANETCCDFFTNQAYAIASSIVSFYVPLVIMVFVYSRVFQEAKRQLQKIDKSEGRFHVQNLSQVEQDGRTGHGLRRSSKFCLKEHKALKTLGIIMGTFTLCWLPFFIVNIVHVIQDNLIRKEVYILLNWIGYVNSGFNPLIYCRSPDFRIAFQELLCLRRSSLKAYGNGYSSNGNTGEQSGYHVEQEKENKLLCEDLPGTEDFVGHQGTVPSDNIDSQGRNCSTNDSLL
Sequence of M5 (muscarinic acetylcholine receptor type 5) (P08912 whole entry): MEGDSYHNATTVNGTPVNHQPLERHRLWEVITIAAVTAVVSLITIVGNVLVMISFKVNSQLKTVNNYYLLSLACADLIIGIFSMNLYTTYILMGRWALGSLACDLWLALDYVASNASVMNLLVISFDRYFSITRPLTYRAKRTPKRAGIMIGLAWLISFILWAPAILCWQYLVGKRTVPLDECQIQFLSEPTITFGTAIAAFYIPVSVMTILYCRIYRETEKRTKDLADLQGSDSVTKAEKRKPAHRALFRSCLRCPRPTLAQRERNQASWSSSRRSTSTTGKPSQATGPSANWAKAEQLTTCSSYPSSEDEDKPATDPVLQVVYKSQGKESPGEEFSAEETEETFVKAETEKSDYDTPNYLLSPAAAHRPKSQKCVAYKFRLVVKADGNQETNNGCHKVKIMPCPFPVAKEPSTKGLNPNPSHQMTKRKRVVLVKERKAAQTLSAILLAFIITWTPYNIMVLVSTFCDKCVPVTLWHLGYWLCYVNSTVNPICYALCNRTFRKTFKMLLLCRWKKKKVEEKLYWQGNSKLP
Sequence of β-3 (β-adrenergic receptor subtype 3) (P13945 whole entry): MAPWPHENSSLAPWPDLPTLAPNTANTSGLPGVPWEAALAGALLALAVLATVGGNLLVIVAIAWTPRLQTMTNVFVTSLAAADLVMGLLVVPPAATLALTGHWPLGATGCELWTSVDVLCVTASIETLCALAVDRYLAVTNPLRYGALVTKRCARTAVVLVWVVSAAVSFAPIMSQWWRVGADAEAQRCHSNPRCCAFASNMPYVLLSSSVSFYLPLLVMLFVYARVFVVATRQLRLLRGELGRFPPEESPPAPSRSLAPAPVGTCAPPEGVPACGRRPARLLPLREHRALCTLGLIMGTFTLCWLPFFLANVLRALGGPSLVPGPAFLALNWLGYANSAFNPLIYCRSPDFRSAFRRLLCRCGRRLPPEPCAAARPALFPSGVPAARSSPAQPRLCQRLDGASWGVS
Sequence of 5HT2B (serotonin receptor subtype 2B) (P41595 whole entry, species assumed): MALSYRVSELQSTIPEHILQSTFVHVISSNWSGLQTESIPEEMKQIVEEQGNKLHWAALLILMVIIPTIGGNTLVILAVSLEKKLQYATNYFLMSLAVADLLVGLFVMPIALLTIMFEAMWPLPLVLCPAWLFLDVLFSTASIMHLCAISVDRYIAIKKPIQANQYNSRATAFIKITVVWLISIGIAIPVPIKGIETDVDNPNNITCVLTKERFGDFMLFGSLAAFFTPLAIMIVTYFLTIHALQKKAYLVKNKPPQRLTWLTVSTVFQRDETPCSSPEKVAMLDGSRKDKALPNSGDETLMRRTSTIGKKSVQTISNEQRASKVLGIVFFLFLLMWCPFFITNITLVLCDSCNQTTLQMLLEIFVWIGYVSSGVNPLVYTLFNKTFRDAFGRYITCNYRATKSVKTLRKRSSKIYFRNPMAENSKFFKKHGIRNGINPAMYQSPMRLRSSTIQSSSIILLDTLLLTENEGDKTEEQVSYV
Sequence of 5HT1B (serotonin receptor subtype 1B) (P28222 whole entry, species assumed): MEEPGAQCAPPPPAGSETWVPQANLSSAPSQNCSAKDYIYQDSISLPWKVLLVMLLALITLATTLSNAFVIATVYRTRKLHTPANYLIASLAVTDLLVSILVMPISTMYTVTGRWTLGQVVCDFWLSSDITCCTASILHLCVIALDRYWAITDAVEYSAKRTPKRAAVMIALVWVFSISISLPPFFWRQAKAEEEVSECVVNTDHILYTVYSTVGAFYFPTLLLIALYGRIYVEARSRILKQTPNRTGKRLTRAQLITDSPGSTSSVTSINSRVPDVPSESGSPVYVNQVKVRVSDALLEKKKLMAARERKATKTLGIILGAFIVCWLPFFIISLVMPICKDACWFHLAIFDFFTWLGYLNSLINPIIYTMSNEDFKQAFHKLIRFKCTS
Sequence of D1 (dopamine receptor type 1) (P21728 whole entry): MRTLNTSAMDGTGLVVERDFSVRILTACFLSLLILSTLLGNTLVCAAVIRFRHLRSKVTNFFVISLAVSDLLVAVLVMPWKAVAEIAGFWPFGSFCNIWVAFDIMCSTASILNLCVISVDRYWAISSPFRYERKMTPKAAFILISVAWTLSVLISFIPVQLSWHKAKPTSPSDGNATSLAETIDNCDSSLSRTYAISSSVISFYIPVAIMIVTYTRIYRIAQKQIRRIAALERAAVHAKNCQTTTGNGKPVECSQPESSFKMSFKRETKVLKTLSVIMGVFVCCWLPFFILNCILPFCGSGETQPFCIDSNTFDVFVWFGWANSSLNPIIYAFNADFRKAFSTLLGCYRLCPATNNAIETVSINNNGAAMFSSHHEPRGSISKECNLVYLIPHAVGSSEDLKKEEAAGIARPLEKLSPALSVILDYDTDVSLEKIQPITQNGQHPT
Sequence of Sig-1R, sigma-1 receptor (Q9R0C9 whole entry): as the sequence (Q9R0C9 whole entry) above

Take `CCCCNCCCc1ccccc1` [1a, N-(3-Phenylpropyl)butan-1-amine]: in data set [1], the “KI sigma-2 sites” value is reported as “nanomolar affinities” and the sigma-2/sigma-1 stood at 2. Besides, the IC50 (usually the concentration at which inhibition is half-maximal) against Kv1.4 potassium channel came to 50 µM. In addition, in [2], the Ki (usually the dissociation constant of the complex between target and ligand, obtained from inhibition or displacement) stood at 0.2 ± 0.02 µM.

For the compound `CCCCNCCCc1ccc([N+](=O)[O-])cc1` [1b, N-(3-(4-Nitrophenyl)propyl)butan-1-amine], in data set [1], the “KI sigma-2 sites” value is on record as “nanomolar affinities” and the sigma-2/sigma-1 is 7.

For `CCCCCCCNCCCc1ccc([N+](=O)[O-])cc1` [2b, N-(3-(4-Nitrophenyl)propyl)heptan-1-amine], the Ki in [3] was greater than 10 µM; in data set [4] it was 1.1 µM; in [5] it was greater than 10 µM; in [6], 1.1 µM; in data set [7], greater than 10 µM; in data set [8] it was 4 µM. Besides, the inhibition constant (Ki) was 0.014 µM at Sig-2R, sigma-2 receptor; greater than 10 µM in data set [9]; 0.02 µM on Sig-1R, sigma-1 receptor; greater than 10 µM in data set [10]; 0.05 µM in [11] (NIMH PDSP, [3H]8-OH-DPAT/0.5 nM); less than 0.05 µM in data set [11] (text statement on secondary screen). Further, the Ki in data set [12] was 0.6 µM; in data set [13], 1.1 µM; in data set [14], 1.4 µM; in [15], 0.9 µM; in [16] it was greater than 10 µM; in [17], 0.3 µM. For the same compound, the IC50 with HCT-15 was greater than 100 µM; in the data set on MCF-7, 21 ± 1 µM; in the data set on MCF-10A, 53 ± 6 µM; in the data set with A549 it was 55 ± 5 µM; in the data set with SK-OV-3, 73 ± 8 µM; in the data set with SF-268, 40 ± 3 µM. Besides, the concentration for half-maximal inhibition (IC50) with MDA-MB-231 came out at 30 ± 2 µM; with HT-29, 30 ± 1 µM; in the data set on H1299 it was 28 ± 1 µM; in the data set with NCI-H460 it was 38 ± 4 µM; with Du145, 29 ± 1 µM. In addition, the “KI sigma-2 sites” value in data set [1] was “nanomolar affinities”. Further, the sigma-2/sigma-1 in data set [1] worked out at 1. Moreover, in the data set with caspases 3/7, 8, and 9, the “activation of caspases 3/7, 8, and 9” value is on record as “did not activate”. Besides, the “Bmax of [3H]-(+)-pentazocine in the presence of 2b” value at sigma-1 receptor is “unchanged”.

In the case of `CCCCCCCCCCCCCCCCCCNCCCc1ccccc1` [4a, N-(3-Phenylpropyl)octadecan-1-amine], in [1], the “KI sigma-2 sites” value is “micromolar affinities” and the sigma-2/sigma-1 is listed as 0.6.

With `CCCCCCCCCCCCCCCCCCNCCCc1ccc([N+](=O)[O-])cc1` [4b, N-(3-(4-Nitrophenyl)propyl)octadecan-1-amine], in data set [1], the “KI sigma-2 sites” value is “micromolar affinities” and the sigma-2/sigma-1 is 0.3. Further, the Ki in data set [2] came out at 0.042 ± 0.007 µM.

For the compound `CCCCCN` [Amylamine], the Ki in [2] (setting [21]) was determined as 167 ± 35 µM.

Take `CCCCN` [Butylamine, reference compound]: on Kv1.4 potassium channel, the “average inhibition of the Kv1.4 potassium channel” value is recorded as 21%. Also, in data set [2] (setting [21]), the inhibition constant Ki worked out at 477 ± 67 µM.

In the case of `CCCCCCCN` [Heptylamine, reference compound], the “average inhibition of the Kv1.4 potassium channel” value at Kv1.4 potassium channel worked out at 15%.

Turning to `CCCCCCCCN` [Octylamine], the Ki in data set [2] (setting [21]) turned out to be 6 ± 3 µM.

For the compound `CCCCCCCCCCCCCCN` [Tretradecylamine], the inhibitory constant (Ki) in [2] (setting [21]) is 1 ± 0.03 µM.

On to `O=C(Cc1cccc(Br)c1)NC1CCN(Cc2ccc([18F])cc2)CC1` [[^18F]FBPBPA, N-[1-(4′-[^18F]fluorobenzyl)piperidin-4-yl]-3-bromophenylacetamide], for which, in data set [18], the “receptor-specific uptake of the tracer in the brain” value is ~ 60% and the “receptor-specific uptake of the tracer in the tumor” value is ~ 25%.

As to `C[C@@H]1CN(CCCn2c3ccccc3c3ccccc32)C[C@H](C)N1` [rimcazole], the “activation of caspases 3/7” value with caspases 3/7 [19] is “not found to activate”; with caspases 3/7 [20], “activate”.
